Data on 48 compounds can be found in PubChem BioAssay AID743022 (Sanford-Burnham Center for Chemical Genomics, 2013).

“And” between values parts separate entries of the source, which are not always exact repeats. Equal values may be shown once. The source made the active and inactive calls.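 Rule for the calls: active = compounds whose mean IC50 for blocking the worm GFP/RFP stress reporter is 5 µM or lower; inactive = the rest.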

The term IC50 denotes the concentration needed to halve the response being measured.

This assay has as its system C. elegans VP596 gst-4::GFP/RFP ratio, acrylamide-induced, 24 h. In words: C. elegans gst-4 reporter suppression, analog potency – whole organism, GFP/RFP fluorescence ratio, round 3, SKN-1 inhibitor project, SAR follow-up (AID 743022).

In the case of `Cc1ccc(-c2nc(-c3ccncc3)sc2C)cc1`, the IC50 was > 64 µM (inactive).

With `N#Cc1ccc(-c2csc(-c3ccncc3)n2)cc1`, the IC50 is 13.5 µM (inactive). The same measure for `Clc1ccc(-c2csc(-c3ccncc3)n2)cc1Cl`: 0.276 µM and 0.884 µM; for `COc1ccccc1-c1csc(-c2ccncc2)n1`: > 64 µM (inactive).

On to `c1ccc(-c2nc(-c3cccnc3)cs2)cc1`, for which the IC50 was > 64 µM (inactive). For `COc1ccc(-c2nc(-c3ccncc3)sc2C)cc1` the value was 51.2 µM (inactive); for `c1ccc(-c2csc(-c3ccccn3)n2)cc1`, 29 µM (inactive). For `COc1ccc(-c2csc(C3CCNCC3)n2)cc1` the value was > 64 µM (inactive); for `Cc1ccc(-c2csc(-c3ccccn3)n2)cc1`, 27.4 µM (inactive). For `COC(=O)c1ccc(-c2csc(-c3ccncc3)n2)cc1` the value was > 64 µM (inactive); for `Clc1ccc(-c2csc(-c3cccnc3)n2)cc1`, 1.67 µM and 0.379 µM; for `Cc1csc(-c2ccncc2)n1`, > 64 µM (inactive). Turning to `Cc1ccc(-c2csc(-c3cccnc3)n2)cc1`, the IC50 is > 64 µM (inactive). `Clc1ccc(-c2csc(-c3ccncc3)n2)c(Cl)c1`: the half-inhibitory concentration (IC50) is 1.1 µM.

For `Cc1cccc(-c2csc(-c3ccncc3)n2)c1`, the IC50 is 30.1 µM (inactive). With `FC(F)(F)c1ccc(-c2csc(-c3ccncc3)n2)cc1`, the IC50 was 3.9 µM. For the compound `Fc1ccc(-c2csc(-c3cccnc3)n2)cc1`, the IC50 is 6.94 µM (inactive). Turning to `CCCc1cc(-c2nc(-c3ccc(NS(C)(=O)=O)cc3)cs2)ccn1`, the IC50 was > 64 µM (inactive).

Consider `Clc1cccc(-c2csc(-c3ccncc3)n2)c1`, for which the IC50 is 1.49 µM. As to `COc1ccc(-c2csc(-c3ccncc3)n2)cc1`, the IC50 was 16.6 µM (inactive).

With `Fc1ccc(-c2csc(-c3ccncc3)n2)cc1`, the 50% inhibitory concentration (IC50) was 2.53 µM. Regarding `Clc1ccc(-c2csc(C3CCNCC3)n2)cc1`, the IC50 was > 64 µM (inactive). Regarding `CCCc1cc(-c2nc(-c3ccc(C)cc3)cs2)ccn1`, the IC50 was 34.1 µM (inactive).

As for `Cc1ccc(-c2csc(-c3ccccc3)n2)cc1`, the IC50 is > 64 µM (inactive).

For `Cc1sc(-c2ccncc2)nc1-c1ccc(Cl)cc1`, the 50% inhibitory concentration (IC50) is 3.24 µM. `Clc1ccc(-c2csc(-c3ccncc3)n2)cc1`: the IC50 was 1.34 µM and 1.92 µM.

Take `Cc1sc(-c2ccncc2)nc1-c1ccccc1`: the IC50 was 11.3 µM (inactive).

Consider `c1cc(-c2nc(C3CC3)cs2)ccn1`, for which the IC50 is > 64 µM (inactive). For `COc1cccc(-c2csc(-c3ccncc3)n2)c1` the value was 26.2 µM (inactive); for `Cc1ccc(-c2csc(-c3ccncc3)n2)cc1`, 18.2 µM (inactive); for `c1ccc(-c2csc(C3CCNCC3)n2)cc1`, > 64 µM (inactive). Turning to `Clc1ccc(-c2csc(-c3ccccn3)n2)cc1`, the IC50 is 1.59 µM and 0.869 µM. For `Cc1sc(C2CCNCC2)nc1-c1ccccc1` the value was > 64 µM (inactive). For `Fc1ccc(-c2csc(-c3ccccc3)n2)cc1` the value was 23.3 µM (inactive); for `Cc1ccc(-c2csc(C3CCNCC3)n2)cc1`, > 64 µM (inactive). In the case of `Fc1ccc(-c2csc(-c3ccccn3)n2)cc1`, the concentration for half-maximal inhibition (IC50) was 3.18 µM. As to `Fc1ccc(-c2csc(C3CCNCC3)n2)cc1`, the IC50 is > 64 µM (inactive). With `c1cc(-c2nc(-c3nccs3)cs2)ccn1`, the IC50 is 21.5 µM (inactive).

Take `COc1ccc(-c2csc(-c3ccccc3)n2)cc1`: the IC50 is 28.8 µM (inactive). The same measure for `Clc1ccc(-c2csc(-c3ccccc3)n2)cc1`: 2.1 µM; for `Clc1ccccc1-c1csc(-c2ccncc2)n1`: 3.63 µM. For `Cc1ccccc1-c1csc(-c2ccncc2)n1` the value was 14.6 µM (inactive).

Consider `c1ccc(-c2csc(-c3cccnc3)n2)cc1`, for which the IC50 was 17.7 µM (inactive). For `CC(C)(C)c1csc(-c2ccncc2)n1` the value was > 64 µM (inactive); for `COc1ccc(-c2csc(-c3cccnc3)n2)cc1`, 13.4 µM (inactive). Regarding `Cc1sc(-c2ccncc2)nc1-c1ccc(F)cc1`, the 50% inhibitory concentration (IC50) was 4.77 µM. For the compound `c1ccc(-c2csc(-c3ccncc3)n2)cc1`, the 50% inhibitory concentration (IC50) is 2.5 µM. As to `COc1ccc(-c2csc(-c3ccccn3)n2)cc1`, the IC50 is 17.9 µM (inactive).
